# Measurements from patent publication US20240327506A1, “METHODS AND COMPOSITION FOR THE SELECTIVE ENHANCEMENT OF ADOPTIVE CELL THERAPY” (MaineHealth, priority 2023, published 2024).
# What was measured:
# [1] = test system: primary murine CD8+ T-cells; experiment: CD8+ T-cell polarization on denatured collagen type-IV (F-actin staining); type: cell-based; conditions: denatured collagen type-IV coated slides, 1 hour, compared to CP
# From the text: FIGS. 3A-3C. The RGDKGE (SEQ ID NO: 1)-containing collagen peptide P2 inhibits CD8+ T-cell polarization on denatured collagen type-IV. Briefly, microscopy slides were coated with denatured collagen type-IV to mimic the altered subendothelial basement membranes of tumor associated blood vessels. Murine primary CD8+ T-cells were isolated from mice bearing B16F10 melanomas and stimulated with either non-specific control peptide CP or the RGDKGE (SEQ ID NO: 1)-containing collagen peptide P2 and seeded on the coated slides. T-cells were allowed to incubate for 1 hour. Next slides were washed, fixed and stained with Rhodamine-labeled Phalloidin to mark F-actin. Cells were analyzed for morphological evidence of cell shape changes and polarized F-actin. FIG. 3A. Example of an enlarged image of CD8+ T-cell morphology following stimulation with either non-specific control peptide CP or the RGDKGE (SEQ ID NO: 1)-containing collagen peptide P2. FIG. 3B. Example of CD8+ T-cell morphology following stimulation with either non-specific control peptide CP or the RGDKGE (SEQ ID NO: 1)-containing collagen peptide P2. […] FIG. 3C. Quantification of the mean percentage of polarized CD8+ T-cells per 400× microscopic field. Data bars indicate mean percentage of polarized cells per 400× microscopic field from two independent experiments with 10 to 11 fields per treatment. *P<0.05. […]
# [2] = test system: primary CD8+ T-cells from melanoma bearing C57BL/6 mice; experiment: Transwell migration of primary CD8+ T-cells through collagen type-IV; type: cell-based, murine; conditions: peptide
# Experimental: FIGS. 4A-4H. […] Briefly, membranes from transwell migration chambers were coated with either native collagen type-IV or denatured collagen type-IV. T-cell variants were incubated with non-specific control peptide CP, or the RGDKGE (SEQ ID NO: 1)-containing collagen peptide (P2) and seed on the coated transwell membranes. T-cells were allowed to migrate in the presence or absence of SDF-1 added to the lower chamber for approximately 1.5 hours. Cell migration was quantified by counting the number of crystal violet stained cells that had migrated through to the underside of the coated membrane. FIG. 4A. Jurkat T-cell migration through denatured collagen type-IV in the presence of non-specific control peptide CP or RGDKGE (SEQ ID NO: 1)-containing collagen peptide P2 with SDF-1. FIG. 4B. Jurkat T-cell migration through native collagen type-IV in the presence of non-specific control peptide CP or RGDKGE (SEQ ID NO: 1)-containing collagen peptide P2 with SDF-1. FIG. 4C. Cem/C1 T-cell migration through denatured collagen type-IV in the presence of non-specific control peptide CP or RGDKGE (SEQ ID NO: 1)-containing collagen peptide P2 with SDF-1. FIG. 4D. […]
# FIGS. 5A-5F. […] Cell migration was quantified by counting the number of crystal violet stained cells that had migrated through to the underside of the coated membrane. […]
sequence,measurement,setting,value
"QGPRGDKGE (CQGPRGDKGEC; Synthetic: Synthetic collagen RGD containing peptide P-2) [Peptide P2, synthetic version of the soluble RGDKGE-containing collagen peptide]",percentage of T-cells exhibiting a migratory and polarized morphological phenotype,[1],significant decrease
same,primary murine CD8+ T-cell migration,"[2]; denatured collagen type-IV, SDF-1, compared to CP",selectively inhibited
same,primary murine CD8+ T-cell migration,"[2]; native collagen type-IV, SDF-1","neither the RGDKGE (SEQ ID NO: 1) collagen peptide P2, nor the non-specific control peptide CP had any significant impact"
